Calls of active or inactive are those of the source. No cut-off for these calls is given here.
Target: T1, Tyrosine-protein phosphatase non-receptor type 11 (Homo sapiens) (UniProt Q06124)
T1 sequence (whole entry): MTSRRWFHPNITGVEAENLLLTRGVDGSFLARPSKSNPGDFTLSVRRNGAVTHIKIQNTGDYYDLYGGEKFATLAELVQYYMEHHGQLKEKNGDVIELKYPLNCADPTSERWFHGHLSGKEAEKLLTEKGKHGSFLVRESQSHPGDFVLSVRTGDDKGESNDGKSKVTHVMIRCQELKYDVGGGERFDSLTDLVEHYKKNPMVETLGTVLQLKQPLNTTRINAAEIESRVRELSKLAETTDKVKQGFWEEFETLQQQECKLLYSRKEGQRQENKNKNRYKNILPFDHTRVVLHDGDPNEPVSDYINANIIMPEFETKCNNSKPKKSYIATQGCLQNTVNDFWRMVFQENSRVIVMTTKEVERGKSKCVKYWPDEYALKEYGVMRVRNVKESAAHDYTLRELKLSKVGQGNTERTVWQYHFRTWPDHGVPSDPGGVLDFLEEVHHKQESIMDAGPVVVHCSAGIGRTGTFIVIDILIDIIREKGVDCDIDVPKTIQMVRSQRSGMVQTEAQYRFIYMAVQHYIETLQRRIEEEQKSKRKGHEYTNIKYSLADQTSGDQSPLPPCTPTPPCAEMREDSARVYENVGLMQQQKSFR
Experiment: Inhibition of SHP2 catalytic domain assessed as inhibition of pNPP to p-nitrophenol conversion at 50 uM after 5 mins by spectrophotometry

Structure (SMILES) | inhibition
Cc1ccccc1NS(=O)(=O)c1cccc(C(=O)Nc2ccccc2C(=O)O)c1 | 50.5%
O=C(O)c1ccccc1NS(=O)(=O)c1cccc2nsnc12 | 0%
COc1cc(/C=C2\SC(=S)N(C(CC(=O)O)C(=O)O)C2=O)ccc1O (centres undefined) | 69.5%
O=C(CC(Cc1ccccc1)C(=O)O)Nc1ccc([N+](=O)[O-])cc1 (centres undefined) | 1%
O=C(O)c1ccc(NS(=O)(=O)c2cccc(C(=O)Nc3cccc(C(=O)O)c3)c2)cc1 | 44%
Cc1ccc(C(=O)O)cc1NC(=O)[C@H]1CC=CC[C@@H]1C(=O)O | 6%
COc1ccc(/C=C2\C(=O)N(c3ccc(C(=O)O)cc3)N=C2C)cc1[N+](=O)[O-] | 41%
Cc1cc(C(=O)O)ccc1NC(=O)C1CC=CCC1C(=O)O (centres undefined) | 13%
O=C(O)c1cc(S(=O)(=O)Nc2ccccc2C(=O)O)ccc1Br | 4.5%
O=C(O)c1cc(N/C(=N\S(=O)(=O)c2ccccc2)c2ccccc2)ccc1O | 12.5%
O=C(O)c1ccc(NCc2ccccc2)c(NC(=O)C2CC=CCC2C(=O)O)c1 (centres undefined) | 43%
O=C(O)c1cccc(N/C(=N\S(=O)(=O)c2ccc(Cl)cc2)c2ccccc2)c1 | 10.5%
O=C(O)Cc1ccc2[nH]c3ccc(CC(=O)O)cc3c2c1 | 52.5%
COc1ccc(C2Nc3ccc(C(=O)O)cc3C3C=CCC32)cc1[N+](=O)[O-] (centres undefined) | 1.5%
O=C(O)c1cccc(NS(=O)(=O)c2ccc3c4c(cccc24)C(=O)N3)c1 | 4.5%
O=C(O)c1ccccc1NC(=O)c1ccccc1-c1ccccc1C(=O)O | 38%
O=C(O)c1ccc(/N=N/c2c(O)c(C(=O)O)cc3ccccc23)cc1 | 8.5%
O=C(O)c1cccc(-c2ccc(/C=C/[N+](=O)[O-])o2)c1 | 95%
O=C(O)c1ccc(NC(=O)C2CC=CCC2C(=O)O)cc1O (centres undefined) | 4.5%
O=[N+]([O-])c1ccc(/C=N/Nc2ccc(S(=O)(=O)O)cc2)cc1 | 91.5%
CS(=O)(=O)N(CC(=O)Nc1ccccc1C(=O)O)c1ccc(F)cc1 | 24%
O=C(O)c1ccc(C2(c3ccc(C(=O)O)cc3)OC(=O)c3ccccc32)cc1 | 1.5%

Other lines, results leading:

inhibition | Structure (SMILES)
47% | O=C(O)c1ccccc1NS(=O)(=O)c1cccc(C(=O)N2CCCc3ccccc32)c1
34.5% | O=C(O)c1ccc(NS(=O)(=O)c2cc(C(=O)O)ccc2Br)cc1
28% | Cc1ccc(/C=C/C(=O)O)cc1S(=O)(=O)Nc1ccc(C(=O)O)cc1
3.5% | CC(=O)Nc1ccc(OS(=O)(=O)c2cccc(C(=O)O)c2)cc1
0.5% | CC1CCN(S(=O)(=O)c2ccc3[nH]cc(C(=O)O)c(=O)c3c2)CC1
74.5% | CC(=O)N(c1ccc2oc3c(c2c1)CCCC3)S(=O)(=O)c1ccc(C(=O)O)cc1
7% | O=C(O)c1cccc(NS(=O)(=O)c2ccc(Cl)c(C(=O)O)c2)c1
5.5% | O=C(O)/C=C/c1cccc(NS(=O)(=O)c2ccc(C(=O)O)cc2)c1
1% | O=C(O)Cc1c(C(=O)O)[nH]c2ccc(C(=O)O)cc12
40.5% | O=C(O)c1ccc(CNS(=O)(=O)c2ccc(C(=O)O)cc2)cc1
51% | CCOc1cc(/C=N/Nc2ccc(S(=O)(=O)O)cc2)ccc1O
71.5% | CC(=O)c1c(C)oc2ccc(NS(=O)(=O)c3cccc(C(=O)O)c3)cc12

Target: T2, Tyrosine-protein phosphatase non-receptor type 11 (Homo sapiens, UniProt Q06124)
T2 sequence (Q06124 whole entry): T1 sequence (whole entry)
Experiment: Inhibition of SHP2 catalytic domain assessed as inhibition of pNPP to p-nitrophenol conversion after 5 mins by spectrophotometry

IC50 | Structure (SMILES)
155 µM | O=C(O)C1=NN(c2ccc(S(=O)(=O)O)cc2)C(=O)C1
181 µM | CC(=O)N(c1ccc2oc3c(c2c1)CCCC3)S(=O)(=O)c1ccc(C(=O)O)cc1
41 µM | Cc1cc(S(=O)(=O)O)ccc1N1N=C(C(=O)O)CC1=O
176 µM | CC(=O)c1c(C)oc2ccc(NS(=O)(=O)c3cccc(C(=O)O)c3)cc12

Target: T1, Tyrosine-protein phosphatase non-receptor type 11 (Homo sapiens)
Experiment: Inhibition of SHP2 catalytic domain assessed as inhibition of pNPP to p-nitrophenol conversion at 1000 uM after 5 mins by spectrophotometry

inhibition | Structure (SMILES)
inactive | CC1=NN(c2ccc(S(=O)(=O)O)cc2C)C(=O)C1
inactive | O=C(O)C1=NN(c2ccccc2)C(=O)C1

Target: T3, Tyrosine-protein phosphatase non-receptor type 1 (Homo sapiens, UniProt P18031)
T3 sequence (P18031 whole entry): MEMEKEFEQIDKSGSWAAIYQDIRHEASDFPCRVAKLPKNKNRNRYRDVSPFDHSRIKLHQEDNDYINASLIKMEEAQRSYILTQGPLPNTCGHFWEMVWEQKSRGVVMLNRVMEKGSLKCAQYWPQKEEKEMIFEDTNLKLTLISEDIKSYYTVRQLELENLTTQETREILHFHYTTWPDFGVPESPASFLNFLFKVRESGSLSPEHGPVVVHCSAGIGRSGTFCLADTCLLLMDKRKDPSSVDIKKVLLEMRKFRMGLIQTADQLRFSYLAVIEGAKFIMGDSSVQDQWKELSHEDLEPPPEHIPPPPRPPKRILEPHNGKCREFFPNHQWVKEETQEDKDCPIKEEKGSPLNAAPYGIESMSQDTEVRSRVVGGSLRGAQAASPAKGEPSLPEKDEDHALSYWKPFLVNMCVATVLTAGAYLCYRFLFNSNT
Experiment: Inhibition of PTP1B

IC50 | Structure (SMILES)
120 µM | CC(=O)N(c1ccc2oc3c(c2c1)CCCC3)S(=O)(=O)c1ccc(C(=O)O)cc1
38 µM | CC(=O)c1c(C)oc2ccc(NS(=O)(=O)c3cccc(C(=O)O)c3)cc12

Target: Tyrosine-protein phosphatase non-receptor type 6 (Homo sapiens, UniProt P29350)
Experiment: Inhibition of SHP1

Sequence of Tyrosine-protein phosphatase non-receptor type 6 (P29350 whole entry): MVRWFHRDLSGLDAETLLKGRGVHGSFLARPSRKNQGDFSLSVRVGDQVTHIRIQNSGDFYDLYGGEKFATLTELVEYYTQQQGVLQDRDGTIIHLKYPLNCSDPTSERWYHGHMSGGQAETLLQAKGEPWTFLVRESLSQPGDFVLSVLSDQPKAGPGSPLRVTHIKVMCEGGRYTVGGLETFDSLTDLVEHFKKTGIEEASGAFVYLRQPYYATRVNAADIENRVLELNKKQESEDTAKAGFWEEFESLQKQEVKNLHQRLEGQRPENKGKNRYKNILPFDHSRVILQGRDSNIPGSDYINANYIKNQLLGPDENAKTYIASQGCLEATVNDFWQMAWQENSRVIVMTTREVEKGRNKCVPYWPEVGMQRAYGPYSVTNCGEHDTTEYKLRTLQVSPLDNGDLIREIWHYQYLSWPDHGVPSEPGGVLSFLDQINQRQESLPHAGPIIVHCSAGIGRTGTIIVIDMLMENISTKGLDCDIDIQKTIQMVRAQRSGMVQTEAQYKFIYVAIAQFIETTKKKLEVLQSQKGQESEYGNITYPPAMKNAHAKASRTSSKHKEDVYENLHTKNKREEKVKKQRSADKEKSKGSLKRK

IC50 | Structure (SMILES)
160 µM | CC(=O)N(c1ccc2oc3c(c2c1)CCCC3)S(=O)(=O)c1ccc(C(=O)O)cc1
85 µM | CC(=O)c1c(C)oc2ccc(NS(=O)(=O)c3cccc(C(=O)O)c3)cc12
